Laboratory results as given in ChEMBL document CHEMBL4402605, “A Chemical Switch for Transforming a Purine Agonist for Toll-like Receptor 7 to a Clinically Relevant Antagonist” (J Med Chem, 2020).
The source made the active and inactive calls. No cut-off for these calls is given here.

What was measured:
Mus musculus [1] = assay: (§1) Protection against imiquimod-induced C57BL/6 mouse model of psoriasis assessed as decrease in skin scaling at 15 mg/kg, po administered via gavage treated 1 day prior to imiquimod application and subsequent daily dosing for 7 consecutive days and measured post-last dose relative to control; assay type: functional; parameters: scale not given: the % may be the effect or the level left
Mus musculus [2] = assay: as §1, with “suppression of papillomatosis” for “decrease in skin scaling”, “by H and E staining based histopathological analysis” for “relative to control”; assay type: functional
[3] = Toxicity in C57BL/6 mouse assessed as mesangial proliferation at 15 mg/kg, po administered once daily via gavage for 7 consecutive days and measured post-last dose by H and E staining based histomorphological analysis; assay type: organism-based; conditions: in vivo
[4] = Oral bioavailability in C57BL/6 mouse at 15 mg/kg administered via gavage by LC-MS/MS analysis; assay type: ADME, organism-based; conditions: in vivo
Mus musculus [5] = assay: as §1, with “suppression of microabscesses” for “decrease in skin scaling”, “by H and E staining based histopathological analysis” for “relative to control”; assay type: functional
HEK293 = assay: Cytotoxicity against HEK293 cells assessed as reduction in cell viability up to 100 uM measured after overnight incubation by propidium iodide staining based flow cytometry; conditions: human
[6] = Tmax in C57BL/6 mouse at 15 mg/kg, po administered via gavage by LC-MS/MS analysis; assay type: ADME, organism-based; conditions: in vivo
[7] = Toxicity in C57BL/6 mouse assessed as change in lung alveolar architecture at 15 mg/kg, po administered once daily via gavage for 7 consecutive days and measured post-last dose by H and E staining based histomorphological analysis; assay type: organism-based; conditions: in vivo
[8] = molecular target: T1, Toll-like receptor 8 (Homo sapiens) (UniProt Q9NR97); assay: Antagonist activity at human TLR8 expressed in HEK-Blue cells assessed as inhibition of CL075-induced NFkappaB activation by measuring reduction in SEAP level up to 50 uM after overnight incubation using qunati-blue reagent by SEAP reporter gene-based spectrophotometric method; assay type: cell-based
T1 sequence (whole entry): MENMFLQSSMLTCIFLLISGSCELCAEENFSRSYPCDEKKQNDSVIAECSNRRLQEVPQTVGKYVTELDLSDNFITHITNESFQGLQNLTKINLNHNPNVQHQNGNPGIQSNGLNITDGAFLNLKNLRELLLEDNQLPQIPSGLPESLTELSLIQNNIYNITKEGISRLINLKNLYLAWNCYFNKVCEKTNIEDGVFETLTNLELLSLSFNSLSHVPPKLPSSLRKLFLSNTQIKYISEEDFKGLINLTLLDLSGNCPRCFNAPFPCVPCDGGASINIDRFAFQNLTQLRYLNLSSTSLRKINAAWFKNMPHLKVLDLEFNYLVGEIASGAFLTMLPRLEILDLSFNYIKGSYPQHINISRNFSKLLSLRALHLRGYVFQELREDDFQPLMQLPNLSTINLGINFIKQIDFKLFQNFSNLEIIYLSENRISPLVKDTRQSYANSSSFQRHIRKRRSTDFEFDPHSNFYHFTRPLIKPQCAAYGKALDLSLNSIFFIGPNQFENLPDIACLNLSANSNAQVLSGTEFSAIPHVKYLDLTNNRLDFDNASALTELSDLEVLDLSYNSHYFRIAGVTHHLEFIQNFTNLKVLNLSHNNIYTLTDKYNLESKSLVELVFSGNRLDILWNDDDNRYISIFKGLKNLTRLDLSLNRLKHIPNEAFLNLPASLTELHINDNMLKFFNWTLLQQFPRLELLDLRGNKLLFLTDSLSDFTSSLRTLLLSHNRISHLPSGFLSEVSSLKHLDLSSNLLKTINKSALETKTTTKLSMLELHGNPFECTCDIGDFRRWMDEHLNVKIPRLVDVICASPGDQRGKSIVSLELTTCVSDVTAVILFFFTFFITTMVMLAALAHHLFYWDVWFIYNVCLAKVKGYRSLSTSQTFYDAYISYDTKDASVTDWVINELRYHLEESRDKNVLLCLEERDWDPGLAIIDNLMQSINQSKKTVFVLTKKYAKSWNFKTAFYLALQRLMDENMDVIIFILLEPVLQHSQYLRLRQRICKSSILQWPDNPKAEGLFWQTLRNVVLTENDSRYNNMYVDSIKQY

[9] = Apparent permeability across basal to apical side in human Caco2 cells at 10 uM measured after 120 mins by LC-MS/MS analysis; conditions: Caco-2
[10] = molecular target: T2, Toll-like receptor 7 (Homo sapiens) (UniProt Q9NYK1); assay: Antagonist activity at human TLR7 expressed in HEK-Blue cells assessed as inhibition of CL264-induced IL-6 mRNA expression at 5 uM preincubated for 1 hr followed by CL264 stimulation and measured after 6 hrs by SYBR green dye based RT-PCR analysis relative to control; assay type: cell-based
T2 sequence (whole entry): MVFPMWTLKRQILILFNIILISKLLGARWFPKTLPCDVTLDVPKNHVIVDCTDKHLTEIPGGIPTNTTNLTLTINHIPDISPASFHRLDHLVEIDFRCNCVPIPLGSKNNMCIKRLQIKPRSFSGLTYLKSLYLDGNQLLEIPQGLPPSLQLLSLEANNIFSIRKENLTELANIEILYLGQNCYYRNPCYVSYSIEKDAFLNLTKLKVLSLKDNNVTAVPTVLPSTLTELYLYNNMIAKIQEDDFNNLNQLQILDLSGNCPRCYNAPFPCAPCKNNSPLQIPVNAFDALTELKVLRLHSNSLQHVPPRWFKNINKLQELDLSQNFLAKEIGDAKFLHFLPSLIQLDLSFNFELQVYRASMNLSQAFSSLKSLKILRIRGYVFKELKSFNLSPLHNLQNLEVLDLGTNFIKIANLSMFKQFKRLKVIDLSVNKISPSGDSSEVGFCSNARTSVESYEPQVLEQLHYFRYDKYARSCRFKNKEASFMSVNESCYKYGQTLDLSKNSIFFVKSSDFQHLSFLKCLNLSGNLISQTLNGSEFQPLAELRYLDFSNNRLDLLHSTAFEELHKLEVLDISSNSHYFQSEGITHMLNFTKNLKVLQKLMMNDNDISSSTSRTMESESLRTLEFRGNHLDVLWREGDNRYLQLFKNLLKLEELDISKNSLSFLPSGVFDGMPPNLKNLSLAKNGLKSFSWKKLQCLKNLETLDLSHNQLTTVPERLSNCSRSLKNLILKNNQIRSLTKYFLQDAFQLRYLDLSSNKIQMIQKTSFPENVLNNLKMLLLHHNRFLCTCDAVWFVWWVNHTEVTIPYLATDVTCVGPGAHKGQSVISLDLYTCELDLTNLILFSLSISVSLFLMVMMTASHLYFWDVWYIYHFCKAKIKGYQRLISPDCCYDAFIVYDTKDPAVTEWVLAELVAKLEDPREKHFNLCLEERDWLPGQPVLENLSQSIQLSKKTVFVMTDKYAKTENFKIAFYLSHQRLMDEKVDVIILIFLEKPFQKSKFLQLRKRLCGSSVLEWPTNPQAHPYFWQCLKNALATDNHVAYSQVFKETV

Mus musculus [11] = assay: as §1, with “reduction” for “decrease”, “ISG15 mRNA expression” for “skin scaling”, “by SYBR green dye based qPCR analysis” for “relative to control”; assay type: functional, organism-based

SMILES: CCN1CCN(CCCn2cnc3c(N4CCN(CC)CC4)ncnc32)CC1
- Activity (Mus musculus [1]): 100%
- Activity (Mus musculus [2]): 100%
- Activity [3]: Non-Toxic
- bioavailability [4]: 70.8%
- Activity (Mus musculus [5]): 100%
- Activity (HEK293): Non-Toxic
- Tmax [6]: 2 h
- Activity [7]: Non-Toxic
- inhibition [8]: inactive
- Papp B→A at 2 h, 10 µM [9]: 9.28 ×10⁻⁶ cm/s
- inhibition [10]: 42.9%
- Activity (Mus musculus [11]): Active
